Where two headings read alike, the source gives them in different places.
How the values were obtained:
[1] = system: wild-type mouse bone marrow; assay: Hematopoietic colonies from bone marrow treated ex vivo; format: cell-based; settings: 1 uM, ex vivo on ice 2 hours
Description: Treated marrow is again then plated into methylcellulose for counting of hematopoietic colonies.

[2] = system: 15-PGDH luciferase fusion construct in V9m reporter cell line; assay: 15-PGDH-luciferase fusion gene reporter induction, V9m cells; format: cell-based
A549 cells [3] = assay: PGE2 levels in the medium of IL1-beta stimulated A549 cells; format: cell-based; settings: for Decrease PGE-2 (IL-1beta-A549, %): media of IL-1beta stimulated A549 cells;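 as to all read-outs here: PGE2 in the collected culture medium quantified by enzyme immunoassay (ELISA), with data drawn from three independent experiments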
[4] = system: 15-PGDH luciferase fusion construct in LS174T reporter cell line; assay: 15-PGDH-luciferase fusion gene reporter induction, LS174T cells; format: cell-based; settings: Homo sapiens
[5] = system: 15-PGDH luciferase fusion construct in Vaco503 reporter cell line; assay: 15-PGDH-luciferase fusion gene reporter induction, V503 cells; format: cell-based
A549 cells [6] = assay: Cellular toxicity on A549 cells (CellTiter-Glo); format: cell-based; design: Decrease Cell viability in A549 cell (%): concentration or dose not given beside the values; settings: for Decrease Cell viability in A549 cell (%): A549 cells
[7] = Metabolic stability with murine liver S9; format: in vitro ADME
Experimental: SW054384 (2 mM in DMSO) was incubated with Murine S9 (Lot KWB) fraction and Phase I (NADPH Regenerating System) cofactors for 0-240 minutes. Reactions were quenched with a 1 mL (1:1) of MeOH/(+)IS/0.2% Formic Acid, vortexed for 15 seconds, incubated at RT for 10 minutes and spun for 5 minutes at 2400 rpms. […] Supernatant (800 μL) was transferred to an HPLC vial (w/out insert) and analyzed by HPLC/MS. A: dH2O+0.1% FA B: MeOH+0.1% FA
SW125991 (2 mM in DMSO) was incubated with Murine S9 (Lot KWB) fraction and Phase I (NADPH Regenerating System) cofactors for 0-240 minutes. Reactions were quenched with 1 mL (1:1) of methanol containing 0.2% formic acid and 100 ng/ml IS (IS final conc.=50 ng/ml). Samples were vortexed for 15 seconds, incubated at RT for 10 minutes and spun for 5 minutes at 2400 rpm. […] Supernatant (800 μL) was transferred to an HPLC vial (w/out insert). Analyzed by Qtrap 3200 mass spectrometer.

15-PGDH mRNA = 15-PGDH mRNA levels by real-time PCR; format: cell-based; settings: treated colon cancer cell lines
[8] = system: 15-PGDH-luciferase fusion reporter in V9m, LS174T and V503 cells; assay: 15-PGDH-luciferase fusion gene reporter induction, stated for the three cell line backgrounds together; format: cell-based; settings: for induction of 15-PGDH-luciferase reporter in cell lines (SW054384 analogues): […] and […]
15-PGDH protein = 15-PGDH protein (Homo sapiens (Human), UniProt P15428); assay: Inhibition of enzymatic activity of recombinant 15-PGDH in vitro (tritium transfer from PGE2 or NADH fluorescence); format: biochemical; settings: for IC50: recombinant 15-PGDH in vitro, read-out: Enzyme inhibition (IC50)
[9] = read-out: V9M-SC3 Reporter activity ([…]) (%), V9m reporter cells, […] compound, % induction of luciferase activity over basal level, read-out: V9M-SC3 Reporter activity (2.5 μM) (%)
[10] = read-out: V9M-SC3 Reporter activity ([…]), %, V9m reporter cells, […] compound, % induction of luciferase activity over basal level, read-out: V9M-SC3 Reporter activity (7.5 μM), %
[11] = read-out: Ls174T-SC1 reporter activity, % ([…]), LS174T reporter cells, […] compound, % induction of luciferase activity over basal level, read-out: Ls174T-SC1 reporter activity, % (2.5 μM)
[12] = read-out: Ls174T-SC1 reporter activity, % ([…]), LS174T reporter cells, […] compound, % induction of luciferase activity over basal level, read-out: Ls174T-SC1 reporter activity, % (7.5 μM)
[13] = read-out: V503-3H9-7 reporter activity, % ([…]), V503 reporter cells, […] compound, % induction of luciferase activity over basal level, read-out: V503-3H9-7 reporter activity, % (2.5 μM)
[14] = read-out: V503-3H9-7 reporter activity, % ([…]), V503 reporter cells, […] compound, % induction of luciferase activity over basal level, read-out: V503-3H9-7 reporter activity, % (7.5 μM)

Sequence of 15-PGDH protein (P15428 whole entry): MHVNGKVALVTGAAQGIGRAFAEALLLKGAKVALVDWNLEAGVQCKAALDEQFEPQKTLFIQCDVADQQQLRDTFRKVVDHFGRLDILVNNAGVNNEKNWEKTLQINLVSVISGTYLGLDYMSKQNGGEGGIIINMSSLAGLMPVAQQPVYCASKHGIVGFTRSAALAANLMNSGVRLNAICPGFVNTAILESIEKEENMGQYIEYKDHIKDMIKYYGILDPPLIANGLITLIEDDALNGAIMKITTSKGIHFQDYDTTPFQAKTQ

Row | Compound | activation at […] [2, 9] [%] | activation at […] [2, 10] [%] | Decrease PGE-2 (IL-1beta-A549, %) (A549 cells [3]) [%] | activation at […] [4, 11] [%] | activation at […] [4, 12] [%] | activation at […] [5, 13] [%] | activation at […] [5, 14] [%] | Decrease Cell viability in A549 cell (%) (A549 cells [6]) | other results
1 | CCCCC[C@H](O)/C=C/[C@H]1[C@H](O)CC(=O)[C@@H]1C/C=C\CCCC(=O)O [PGE2, prostaglandin E2] | – | – | – | – | – | – | – | – | increase in bone marrow derived colonies relative to SW033291 [1]: lesser increase
2 | COc1ccc(OC)c(N(CC(=O)N2CCOCC2)S(=O)(=O)c2ccccc2)c1 [SW125991] | 77.4 | 74.6 | 31.33 | 67.3 | 83.3 | 161 | 149 | −2.13 | lowering of PGE2 levels in media (A549 cells [3]): show activity in lowering PGE2; toxicity by CellTiter-Glo (A549 cells [6]; 24 hours): no toxicity; metabolic stability [7]: marked improvement in metabolic stability; half-life ([7]; mouse, liver S9 fraction, Murine S9 fraction, Phase I cofactors, 0-240 minutes): 3.4 h
3 | O=C(c1ccc2nc(-c3ccccc3)c(-c3ccccc3)nc2c1)N1CCCCC1 [SW145753] | – | – | – | – | – | – | – | – | PGE2 levels in medium (A549 cells [3]; IL1-beta 23 hours, compound added for the last 5 hours): clear inhibition of 15-PGDH activity; 15-PGDH mRNA levels (real-time PCR) (15-PGDH mRNA): do not in general alter 15-PGDH mRNA levels; luciferase activity of cells expressing 15-PGDH luciferase fusion construct ([8]; V9m, LS174T, V503, FIG. 1): increase luciferase activity
4 | COc1ccc(S(=O)(=O)N(CC(=O)Nc2cccnc2)c2cc(OC)ccc2OC)cc1 [SW202940] | 147 | 181 | 80.46 | 148 | 211 | 181 | 183 | 45.18 | IC50 (15-PGDH protein): ~5 µM; induction of 15-PGDH-luciferase reporter in cell lines (SW054384 analogues) [8]: active in inducing 15-PGDH-luciferase reporter activity
5 | COc1ccc(S(=O)(=O)N(CC(=O)Nc2ccncc2)c2cc(OC)ccc2OC)cc1 [SW202989] | 188 | 184 | 69.40 | 159 | 171 | 208 | 214 | 30.59 | IC50 (15-PGDH protein): 0.427 µM
6 | COc1ccc(OC)c(N(CC(=O)Nc2ccnnc2)S(=O)(=O)c2ccccc2)c1 [SW203685] | 100 | 204 | 17.84 | 22.3 | 254 | 122 | -33.2 | – | IC50 (15-PGDH protein): 5 µM
7 | COc1ccc(OC)c(N(CC(=O)Nc2nccs2)S(=O)(=O)c2ccccc2)c1 [SW203691] | 7.78 | 19.8 | 36.76 | 5.47 | 22 | 47.1 | 90 | 0.00 | inhibition at […] (15-PGDH protein; read-out: Enzyme inhibition % ([…]), recombinant 15-PGDH, […] compound, read-out: Enzyme inhibition % (7.5 μM)): 3.12%
8 | COc1ccc(OC)c(N(CC(=O)Nc2csnc2C)S(=O)(=O)c2ccccc2)c1 [SW203703] | 108 | 106 | 31.90 | 85.8 | 80.2 | 143 | 78 | −1.97 | lowering of PGE2 levels in media (A549 cells [3]): show activity in lowering PGE2; induction of 15-PGDH-luciferase reporter in cell lines (SW054384 analogues) [8]: active in inducing the 15-PGDH-luciferase reporter
9 | COc1ccc(OC)c(N(CC(=O)Nc2cc(C)no2)S(=O)(=O)c2ccccc2)c1 [SW203704] | 8.71 | 8.04 | 22.33 | 8.64 | 12.5 | 52.8 | 37.8 | −2.70 | induction of 15-PGDH-luciferase reporter in cell lines (SW054384 analogues) [8]: active in inducing the 15-PGDH-luciferase reporter
10 | COc1ccc(OC)c(N(CC(=O)Nc2cccnc2)S(=O)(=O)c2ccc(F)cc2)c1 [SW203736] | 132 | 145 | 31.86 | 127 | 156 | 244 | 204 | −3.06 | lowering of PGE2 levels in media (A549 cells [3]): show activity in lowering PGE2
11 | COc1ccc(OC)c(N(CC(=O)Nc2cccnc2)S(=O)(=O)c2ccc(Br)cc2)c1 [SW203737] | 93.4 | 103 | 47.78 | 76.7 | 85.1 | 176 | 154 | −2.56 | lowering of PGE2 levels in media (A549 cells [3]): show activity in lowering PGE2
12 | CCCC[S+]([O-])c1sc2nc(-c3nccs3)ccc2c1N (centres unmarked) [SW206992, 2-(butylsulfinyl)-6-(thiazol-2-yl)thieno[2,3-b]pyridin-3-amine] | – | – | – | – | – | – | – | – | compound concentration at maximal effect on PGE2 (A549 cells [3]; IL-1β 16 h, compound 8 h): 2.5 µM; effect on CellTitre-Glo levels (A549 cells [6]; 24 hours, concentrations of up to 10 uM): No effect on CellTitre-Glo levels; Toxicity (A549 cells [6]; concentration needed to decrease cell numbers in a cell culture assay, Table 3): >7.5 µM; exposure needed to induce maximal reporter induction ([8]; 24 hours, three cell line backgrounds): > 1000 nM; Concentration for Full Cell Line Reporter Induction ([8]; maximal induction of reporter, Table 3): >1 µM
13 | COc1ccc(S(=O)(=O)N(CC(=O)N2CCCCC2)c2cc(OC)ccc2OC)cc1 [SW207999] | 128 | 124 | – | 98 | 123 | 124 | 110 | – | induction of 15-PGDH-luciferase reporter in cell lines (SW054384 analogues) [8]: active in inducing the 15-PGDH-luciferase reporter
14 | C[S+]([O-])c1sc2nc(-c3cccs3)cc(-c3ccccc3)c2c1N (centres unmarked) [SW208079, 2-(methylsulfinyl)-4-phenyl-6-(thiophen-2-yl)thieno[2,3-b]pyridin-3-amine] | – | – | – | – | – | – | – | – | activation at […] ([2]; read-out: V9M reporter activity ([…]), […], % increased luciferase activity over basal level, 100 = doubling, read-out: V9M reporter activity (2.5 uM)): 36%; activation at […] ([2]; read-out: V9M reporter activity ([…]), […], % increased luciferase activity over basal level, 100 = doubling, read-out: V9M reporter activity (7.5 uM)): 32.8%; activation at […] ([4]; read-out: LS174T reporter activity ([…]), […], % increased luciferase activity over basal level, read-out: LS174T reporter activity (2.5 uM)): 53.4%; activation at […] ([4]; read-out: LS174T reporter activity ([…]), […], % increased luciferase activity over basal level, read-out: LS174T reporter activity (7.5 uM)): 43.8%; IC50 higher compared to SW033291 (15-PGDH protein; effect of carbon side chain length): over 60 fold; activation at […] ([5]; read-out: V503 reporter activity ([…]), […], % increased luciferase activity over basal level, read-out: V503 reporter activity (2.5 uM)): 85.3%; activation at […] ([5]; read-out: V503 reporter activity ([…]), […], % increased luciferase activity over basal level, read-out: V503 reporter activity (7.5 uM)): 61.8%; reporter induction in reporter cell lines [8]: marked loss of activity in inducing the cell line reporters
15 | CCCCC(C)(C)[C@H](O)/C=C/[C@H]1[C@H](O)CC(=O)[C@@H]1C/C=C\CCCC(=O)O [dmPGE2, 16,16-dimethyl PGE2] | – | – | – | – | – | – | – | – | increase in bone marrow derived colonies relative to SW033291 [1]: slightly greater increase

Source: US9790233B2, “Compositions and methods of modulating 15-PGDH activity” (CASE WESTERN RESERVE UNIVERSITY, priority 2012, dated 2017)
